# According to ChEMBL document CHEMBL3862034, “Measurement of Ligand-Target Residence Times by 1H Relaxation Dispersion NMR Spectroscopy” (J Med Chem, 2016):
# Tests used:
# Fusobacterium nucleatum = assay: Binding affinity to Fusobacterium nucleatum class I aptamer assessed as ligand-target residence time at 1H-8 resonance by (1)H relaxation dispersion NMR spectroscopy
# [1] = system: Caldanaerobacter subterraneus subsp. tengcongensis; assay: Binding affinity to Thermoanaerobacter tengcongensis class I aptamer assessed as ligand-target residence time at 1H-8 resonance by (1)H relaxation dispersion NMR spectroscopy
# Bos taurus [2] = species on record: Bos taurus; assay: Binding affinity to bovine trypsin assessed as ligand-target residence time at 1H-4/5 resonance by (1)H relaxation dispersion NMR spectroscopy
# Bos taurus [3] = species on record: Bos taurus; assay: Binding affinity to bovine trypsin assessed as ligand-target residence time at 1H-9 resonance by (1)H relaxation dispersion NMR spectroscopy
TIME (Fusobacterium nucleatum) [h],TIME [1] [h],TIME (Bos taurus [2]) [h],TIME (Bos taurus [3]) [h],SMILES
1.75e-07,6.39e-08,–,–,NCc1c[nH]c2nc(N)[nH]c(=O)c12
–,–,5.28e-08,5.56e-08,Nc1ccc2cc3ccc(N)cc3nc2c1
